Assays:
HUH7 cells = experiment: Stable isotope (13C18-oleic acid) labeling of triglyceride synthesis with LC-MS detection in HUH7 cells; format: cell-based, human; conditions: for levels of 13C18-triolein relative to those of the control: 10 μM compound, about 90 minutes with 13C18-oleic acid, % of control (FIG. 3)
Protocol: (§1) The 3T3-L1 mouse preadipocyte cells were maintained in Dulbecco's Modified Eagles Medium (DMEM) with 10% fetal bovine serum (FBS). Cells were seeded in 96-well plates. Two days post confluency, the medium was changed to induction medium with IBMX, insulin, and dexamethasone (Adipolysis kit, Cayman Chemical Company). Three days after induction, the medium was changed to insulin medium (Adipolysis kit, Cayman Chemical Company). Five days after induction, the medium was replaced with fresh insulin medium for 2 days. Human hepatoma cell line HUH7 was maintained in DMEM with 10% FBS, 4.5 g/L D-glucose. Rat hepatoma cell line FU5AH was maintained in Minimum Essential Medium Eagle (MEM) with 5% FBS. The hepatoma cells were plated in 96 well plates and used at 80% confluence. Human breast cancer cell line MCF7 cells were maintained in DMEM with 10% FBS, 4.5 g/L D-glucose. Human monocytic leukemia cell line THP-1 was maintained in RPMI medium with 10% FBS and used at 5×10^5 cells/ml.
The HUH7 cells or the differentiated 3T3-L1 cells were incubated with DMEM with 10% charcoal-stripped FBS (Gibco) in 5% CO2 at 37° C. for overnight. The FU5AH cells were incubated with MEM with 5% charcoal-stripped FBS in 5% CO2 at 37° C. for overnight. About 100 μl of 300 μM ^13C18-oleic acid (SIGMA) precomplexed with 0.5% fatty acid free BSA (SIGMA) were added to the cell suspension in 5% CO2 at 37° C. for 0, 30, 60, 120 and 180 minutes. Then the cells were washed once with phosphate buffered saline and extracted with 100 μl of isopropyl alcohol. After incubating at room temperature for 10 minutes, the extraction was transferred to a glass vial and detected for labeled lipid molecules using the LC-MS system.
The LC-MS detection was conducted with Agilent 1100 Liquid Chromatographic system (Agilent Technologies, Palo Alto, Calif.) interfaced with a Micromass triple-quadrupole Quattro Micro mass spectrophotometer (Waters, Milford, Mass.) through a Z-spray electrospray ion source (ESI). Separation of the metabolites was performed on an Eclipse XDB-C8 column (2.1×50 mm, particle size=3.5 μm). Mobile Phase A, 50 mM ammonium formate in isopropanol-water (3:7), and mobile phase B, 10 mM ammonium formate in isopropanol-water (9:1) were used for a gradient elution as following: 20-100% Mobile Phase B for 1 min, hold 100% Mobile Phase B for 4 min, return to 20% Mobile Phase B for 0.1 min, then post run time of 4.5 min. The flow rate was 0.5 ml/min. […]
(§2) For evaluating compounds which modulate activity of DGAT1 or DGAT2, HUH7 or 3T3-L1 cells were preincubated with about 0, 0.03, 0.1, 0.3, 1, 3, or 10 μM Compounds 1 or 2 for about 10 minutes at 37° C. in 100 μl serum free medium with 0.05% DMSO. […] After incubation at 37° C. for about 90 minutes, cells were extracted and detected as described in Example 2.

MCF7 cells = experiment: Stable isotope (13C18-oleic acid) labeling of triglyceride synthesis with LC-MS detection in MCF7 cells; format: cell-based, human; conditions: compound 0.1-10 μM (concentration of the result not stated), about 3 hours with 13C18-oleic acid, % of control (FIG. 6)
Protocol: as §1
The LC-MS detection was conducted with Agilent 1100 Liquid Chromatographic system (Agilent Technologies, Palo Alto, Calif.) interfaced with a Micromass triple-quadrupole Quattro Micro mass spectrophotometer (Waters, Milford, Mass.) through a Z-spray electrospray ion source (ESI). […]
Next, the effects of Compound 2 in MCF7 cells were evaluated. […]

[1] = tested on: differentiated 3T3-L1 cells; experiment: Stable isotope (13C18-oleic acid) labeling of triglyceride synthesis with LC-MS detection in differentiated 3T3-L1 cells; format: cell-based, mouse; conditions: differentiated 3T3-L1 cell line
Protocol: as §1, with “The hepatoma cells were plated in 96 well plates and used at 80% confluence. Human breast cancer cell line MCF7 cells were maintained in DMEM with 10% FBS, 4.5 g/L D-glucose. Human monocytic leukemia cell line THP-1 was maintained in RPMI medium with 10% FBS and used at 5×10^5 cells/ml.” left out
The HUH7 cells or the differentiated 3T3-L1 cells were incubated with DMEM with 10% charcoal-stripped FBS (Gibco) in 5% CO2 at 37° C. for overnight. […] After incubating at room temperature for 10 minutes, the extraction was transferred to a glass vial and detected for labeled lipid molecules using the LC-MS system. […]
as §2

Row | Structure (SMILES) | levels of 13C18-triolein relative to those of the control (HUH7 cells; HUH7 cell line) | levels of 13C18-triolein relative to those of the control (MCF7 cells) | levels of the newly synthesized 13C18-triolein in the presence of compound (HUH7 cells; HUH7 cell line, result in words) | 13C18-oleoyl-diglyceride level (HUH7 cells; HUH7 cells incubated with compound (FIG. 5), result in words) | levels of 13C18-triolein relative to those of the control ([1]; about 10 μM compound, about 90 minutes with 13C18-oleic acid, % of control (FIG. 4)) | levels of the newly synthesized 13C18-triolein in the presence of compound ([1]; result in words)
1 | COC(=O)c1[nH]c(=S)n(C(c2ccc(Cl)c(Cl)c2)C2CCCCC2)c1C(=O)OC (stereo not shown) [Compound 2, dimethyl 1-[cyclohexyl(3,4-dichlorophenyl)methyl]-2-thioxo-2,3-dihydro-1H-imidazole-4,5-dicarboxylate] | about 75% | about 80% | – | – | – | –
2 | COc1ccc(CC(=O)Nc2ccc(N3CCN(C(=O)Nc4c(Cl)cc(CN5CCCC5)cc4Cl)CC3)cc2)cc1 [Compound 1, N-[2,6-Dichloro-4-(pyrrolidin-1-ylmethyl)phenyl]-4-(4-{[(4-methoxyphenyl)acetyl]amino}phenyl)piperazine-1-carboxamide] | about 30% | – | reduced levels | transient increase | about 33% | reduced levels

From patent US9012159B2, “Cell based screening assays for the triglyceride synthesis pathway” (Janssen Research & Development, LLC, priority 2009, dated 2015)
